Assay results from patent publication US6858396B2, “Positively charged non-natural amino acids, methods of making and using thereof in peptides” (Medical University of South Carolina, priority 1996, dated 2005).
Read-outs that look alike come from different tables or passages of the source. Blank lines part the entries; values can stand above or below the compound they belong to. Square brackets hold non-standard residues; d marks the D form. Ends that are not written are not given here. Peptide text beside a SMILES is read from it. hLys = NCCCCC[C@H](N)C(=O)O

Assays:
NT receptor = experiment: Hypothermia in rats after I.V. or I.C. injection of NT(8-13) derivatives (brain uptake across the BBB); format: in vivo
Excerpt: Peptides 36, 39, 42, and 45 are NT(8-13) with non-natural amino acids 32-35 (Scheme L), respectively, were substituted for the Arg^(8) residue.

[1] = in vivo; cited from earlier work
[2] = Excerpt: (§1) Thrombin is a major control point of the blood coagulation cascade, and inhibitors are of interest to combat thrombotic diseases.
Thrombin [3] = biological target: T1, Thrombin (Homo sapiens, UniProt P00734); experiment: Thrombin inhibition (Ki); format: biochemical
Excerpt: as §1

Trypsin = biological target: T2, Trypsin (Bos taurus, UniProt P00760); experiment: Trypsin inhibition (Ki); format: biochemical; conditions: at its limit of solubility in water
T2 construct: gene PRSS1
T2 sequence (P00760 24-246): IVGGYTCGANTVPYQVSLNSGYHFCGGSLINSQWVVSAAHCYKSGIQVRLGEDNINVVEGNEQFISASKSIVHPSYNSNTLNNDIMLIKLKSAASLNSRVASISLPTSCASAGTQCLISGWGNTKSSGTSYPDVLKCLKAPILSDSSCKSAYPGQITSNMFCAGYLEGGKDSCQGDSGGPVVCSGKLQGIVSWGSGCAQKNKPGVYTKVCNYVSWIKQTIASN
Excerpt: as §1

Thrombin [4] = biological target: T1, Thrombin; experiment: Competitive inhibition of thrombin in vitro, chromogenic substrate (D)-Phe-Pip-Arg-p-NA; format: biochemical; set-up: 0.01 units of human thrombin (Sigma); purchased Sigma; conditions: for % Inhibition: peptide 20 μM, 0.01 units human thrombin, pH 7.5, 25° C.
Experimental: A (D)-Phe-Pro-Arg-Ala analogue containing non-natural amino acid (7) (as the racemic mixture in the side chain) in place of Arg was synthesized and compared to (D)-Phe-Pro-Arg-Ala as a competitive inhibitor of thrombin in vitro. The molecule referred to as 7 is Formula I, R1=[…], R2=H, R3=H, R13=H and N=4. The stereochemistry at C2 is racemic (equal D- and L-forms present).
Peptides were incubated individually at 20 μM concentrations with 0.01 units of human thrombin (Sigma) and saturating concentrations of the chromogenic substrate (D)-Phe-Pip-Arg-p-NA at pH 7.5 and 25° C. in 0.1 M phosphate buffer containing 0.2 M NaCl and 0.5% PEG (5c). Initial rates were determined by monitoring formation of p-NA at 405 nm in the absence and presence of the indicated peptides to determine % inhibition. Standard errors were<5%.

Compound: Arg^(8)-Arg^(9)-Pro^(10)-Tyr^(11)-Ile^(12)-Leu^(13)-COOH [NT(8-13), reference compound]
activity (hypothermia) / uptake into brain after I.V. injection (NT receptor; rats, I.V., 1.0 mg doses (FIG. 1A)): no activity
crossing of the blood brain barrier [1]: does not cross the blood brain barrier

Compound: N=C(N)NCCC[C@H](N)C(=O)O [Arg, arginine, reference compound]
RP-HPLC Retention Time [2]: 20.9 ± 0.02 min
Ki (Thrombin [3]; as the N-α-DNS, —COO-Pip derivatives, read-out: Thrombin K12): 0.083 ± 0.024 µM

Compound: CCNC(=N)NCCC[C@H](N)C(=O)O [Compound 31, N(γ)ethyl-Arg]
inhibition of trypsin at limit of solubility in water (Trypsin): does not inhibit trypsin
lipophilicity based on RP-HPLC ([2]; compared with arginine): more lipophilic
RP-HPLC Retention Time ([2]; measure of lipophilicity, as the N-α-DNS, —COO-Pip derivatives): 23.1 ± 0.01 min
Ki (Thrombin [3]): 0.19 ± 0.066 µM
increase in thrombin/trypsin Ki selectivity ratio compared with arginine (Thrombin [3]; KI (Thrombin/Trypsin), 31 versus arginine): ≥ 60 fold

The remaining lines, values ahead:

improvement upon the previously evaluated peptides NT-1 and NT66L (NT receptor; brain uptake): ≥ 300 fold
uptake into brain (NT receptor; rats, single 0.2-mg I.V. dose versus I.C., estimated by potency ratios (FIG. 1B)): roughly 28%
Compound: CC[C@H](C)[C@H](NC(=O)[C@H](Cc1ccc(O)cc1)NC(=O)[C@@H]1CCCN1C(=O)[C@H](CCCNC(=N)N)NC(=O)[C@@H](N)CCCCCN)C(=O)N[C@@H](CC(C)C)C(=O)O [Peptide 36] (H-[hLys]RPYIL-OH)

% Inhibition (Thrombin [4]): 65%
Compound: (D)-Phe-Pro-Arg-Ala ([dF]PRA) [reference compound]

% Inhibition (Thrombin [4]): 82%
better competitive inhibitor than the parent peptide (Thrombin [4]; relative to (D)-Phe-Pro-Arg-Ala): ~25%
Compound: (D)-Phe-Pro-7-Ala
